The target in data set [1] is T1, PAS-B domain of human SRC-1 (residues 257–385) (Homo sapiens, UniProt Q15788).
T1 construct: PAS-B domain of human SRC-1 (residues 257–385); His6; made in house; host or cells: Rosetta E. coli
T1 sequence (Q15788 257-385): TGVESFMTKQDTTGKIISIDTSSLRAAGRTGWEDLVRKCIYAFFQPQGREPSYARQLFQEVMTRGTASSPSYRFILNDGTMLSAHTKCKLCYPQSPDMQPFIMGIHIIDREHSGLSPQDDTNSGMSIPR
Nature of the data set: Competitive fluorescence polarization (FP) assay, fluorescein-labeled STAT-6 peptide binding to SRC-1. The note with it: 100 nM fluorescein-labeled 15-mer STAT-6 peptide, 1 μM PAS-B domain of SRC-1, HEPES pH 7.4, SD from three independent experiments. As to the method: A plasmid expressing the PAS-B domain of human SRC-1 (residues 257–385) tagged with His6 was provided by John A. Robinson (University of Zürich at Switzerland). It was transformed into Rosetta E. coli cells. SRC-1 protein purification was performed as described previously.
After incubating 100 nM of fluorescein-labeled 15-mer STAT-6 peptide with 1 μM of PAS-B domain of SRC-1 in a binding buffer (50 mM HEPES pH 7.4, 150 mM NaCl, 3.4 mM EDTA, and 0.01% Tween 20) in a black Greiner 384-well plate for 30 min, indicated concentrations of YL2 and YL2-HyT1 through YL2-HyT6 were added to each well. After incubation for another 1.5 h, fluorescence polarization was measured on a Tecan Infinite F200 Pro microplate reader (excitation wavelength: 485 nm, emission wavelength: 535 nm). The Ki values of the compounds in the competition assay were determined using the following equation [43]. (1) Ki=[I]50/[L]50/KD+[P]0/KD+1 where [I]50 is the concentration of the free inhibitor at 50% inhibition, KD is the dissociation constant of the protein–ligand complex, [L]50 is the concentration of the free labeled ligand at 50% inhibition, and [P]0 is the concentration of the free protein at 0% inhibition.
A general note: Fluorescence polarisation rises when a labelled molecule tumbles more slowly, as on binding a larger partner.

Data set [2] can be described thus: Circular dichroism (CD), calculated helicity. The data set is classed as physicochemical. To be noted: 50 μM peptide in 30% PBS (pH 7.4) and 70% acetonitrile, calculated from CD spectra. As to the method: Lyophilized compounds (YL2 and YL2-HyT1 through YL2-HyT6) were dissolved in 30% PBS (pH 7.4) and 70% acetonitrile solution to a final concentration of 50 μM. CD spectra were measured with a Jasco J-815 CD spectropolarimeter using a quartz cuvette (2 mm path length). These spectra were averages of five successive accumulations with a scan rate of 100 nm/min. Raw data were converted in terms of per-residue molar ellipticity (deg·cm^2·dmol^−1·residue^−1) as calculated per mole of amide groups present and normalized by the molar concentration of peptides. Smoothing and correction of background spectra were performed with Origin Pro 8.0 (OriginLab Corporation, Northampton, MA, USA). Then α-helical propensities of YL2 and YL2-HyT1 through YL2-HyT6 were calculated as previously reported.

The target of data set [3] is T2, SRC-1 in MDA-MB-231 cells (Homo sapiens, UniProt Q15788).
T2 construct: endogenous in cells; host or cells: MDA-MB-231
T2 sequence (Q15788 whole entry): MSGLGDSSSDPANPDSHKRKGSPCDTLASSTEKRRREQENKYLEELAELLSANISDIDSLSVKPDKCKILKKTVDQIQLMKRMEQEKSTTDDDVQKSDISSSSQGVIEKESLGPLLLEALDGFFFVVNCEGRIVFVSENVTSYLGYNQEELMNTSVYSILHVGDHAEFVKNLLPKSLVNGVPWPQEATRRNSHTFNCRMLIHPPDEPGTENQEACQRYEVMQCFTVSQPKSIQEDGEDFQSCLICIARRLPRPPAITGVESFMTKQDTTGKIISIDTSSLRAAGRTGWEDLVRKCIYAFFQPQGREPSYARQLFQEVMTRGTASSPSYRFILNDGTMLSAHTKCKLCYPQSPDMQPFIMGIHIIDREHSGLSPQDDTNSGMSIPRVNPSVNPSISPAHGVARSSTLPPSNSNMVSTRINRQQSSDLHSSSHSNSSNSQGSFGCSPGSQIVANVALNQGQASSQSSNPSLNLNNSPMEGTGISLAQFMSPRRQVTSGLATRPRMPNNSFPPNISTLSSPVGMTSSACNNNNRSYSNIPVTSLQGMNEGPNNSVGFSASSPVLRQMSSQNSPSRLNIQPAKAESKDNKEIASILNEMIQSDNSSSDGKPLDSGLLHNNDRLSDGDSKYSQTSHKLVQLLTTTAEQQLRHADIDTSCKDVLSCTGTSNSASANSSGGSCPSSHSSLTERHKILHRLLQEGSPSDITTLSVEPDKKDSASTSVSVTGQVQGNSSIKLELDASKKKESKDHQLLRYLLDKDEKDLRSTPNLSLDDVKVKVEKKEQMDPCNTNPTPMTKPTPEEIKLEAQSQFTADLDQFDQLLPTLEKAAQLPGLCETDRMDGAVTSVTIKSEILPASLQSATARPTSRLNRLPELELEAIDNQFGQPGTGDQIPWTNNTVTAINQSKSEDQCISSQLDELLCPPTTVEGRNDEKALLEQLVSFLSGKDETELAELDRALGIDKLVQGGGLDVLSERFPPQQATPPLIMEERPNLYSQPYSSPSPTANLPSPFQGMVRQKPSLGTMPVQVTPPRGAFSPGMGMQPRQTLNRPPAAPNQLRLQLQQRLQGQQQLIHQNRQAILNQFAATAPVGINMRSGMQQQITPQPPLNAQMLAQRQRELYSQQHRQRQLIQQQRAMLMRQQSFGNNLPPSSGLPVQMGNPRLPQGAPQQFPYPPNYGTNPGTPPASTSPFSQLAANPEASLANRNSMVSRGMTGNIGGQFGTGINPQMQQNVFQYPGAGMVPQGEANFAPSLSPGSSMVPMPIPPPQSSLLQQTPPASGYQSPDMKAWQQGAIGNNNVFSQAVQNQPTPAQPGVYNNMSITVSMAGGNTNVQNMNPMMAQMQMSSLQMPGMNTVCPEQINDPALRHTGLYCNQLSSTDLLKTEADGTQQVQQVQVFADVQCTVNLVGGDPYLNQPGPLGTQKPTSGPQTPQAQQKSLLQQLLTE
Nature of the data set: Immunoblot analysis of cellular SRC-1 levels (SRC-1 degradation). The data set is classed as cell-based. The note with it: MDA-MB-231 cells, 18 h; for SRC-1 (%): normalized to GAPDH and DMSO controls. As to the method: MDA-MB-231 and HEK293T cells were cultured in a medium containing Dulbecco’s modified eagle medium (DMEM) supplemented with 1% penicillin–streptomycin (PS) and 10% FBS with 5% CO2 at 37 °C.
MDA-MB-231 cells were seeded into 6-well pates (Corning, 3506) at a density of 6 × 10^5 cell per well. After incubation at 37 °C for 24 h, cells were treated with synthesized compounds in Opti-MEM medium for 12, 18, or 24 h. Cells were washed twice with cold Dulbecco’s phosphate-buffered saline (DPBS) prior to cell lysis using a cell lysis buffer (1% Triton X-100, 150 mM NaCl, 50 mM Tris-HCl pH 7.6, 0.1% SDS, 0.5% sodium deoxycholate, and 1 × protease inhibitor cocktail) on ice. Cell lysates were centrifuged at 13,000 rpm at 4 °C for 15 min. The supernatant was collected, and protein concentration was determined using Pierce^TM 660nm protein assay. A 6 × SDS loading buffer was added to the cell lysate and incubated at 95 °C for 5 min. The same amount of protein was subjected to SDS-PAGE and transferred to PVDF membranes. After blocking membranes with 5% skim milk in TBST (Tris-buffered saline with 0.05% Tween 20), membranes were incubated with a primary antibody at 4 °C overnight. Membranes were then incubated with HRP-linked secondary antibody at rt for 1 h and developed with Pico ECL solution. In MG-132 and 17-AAG treatment experiments, MDA-MB-231 cells were cotreated with synthesized compounds and MG-132 (5 μM) or 17-AAG (1 μM) at 37 °C for 18 h.
For orientation: A western blot detects proteins with antibodies after separation by electrophoresis.

For data set [4], the system named is E-cadherin mRNA in MDA-MB-231 cells. The data set is described as follows: RT-qPCR of E-cadherin mRNA. The data set is classed as cell-based, human. The note with it: 18 h, RT-qPCR normalized to 18S. As to the method: (§1) Quantitative real-time PCR was performed for CSF-1, E-cadherin, and 18S (as a reference gene) mRNAs. MDA-MB-231 cells (1.2 × 10^5 cells/well) were seeded into a 12-well plate and incubated at 37 °C with 5% CO2 for 24 h. These cells were treated with indicated compounds (YL2, adamantane, ND1-YL2, or YL2-HyT6) for 18 h in Opti-MEM medium. After cells were washed with cold DPBS, mRNAs were isolated from these cells using an AccuPrep Universal RNA extraction kit (Bioneer, Daejeon, Korea). Then 1.5 µg of mRNAs were reverse-transcribed using AccuPower RocketScript Cycle RT PreMix (Bioneer) to generate complementary DNAs. RT-qPCR for CSF-1, E-cadherin, and 18S was performed with a StepOnePlus Real-Time PCR System (Applied Biosystems, Waltham, MA, USA) and SYBR Green mix (Applied Biosystems) according to the manufacturer’s instructions with gene-specific primers (Table 1).
In general terms: Real-time PCR tracks product formation cycle by cycle.

For data set [5], the system named is CSF-1 mRNA in MDA-MB-231 cells. Nature of the data set: RT-qPCR of CSF-1 mRNA. The data set is classed as cell-based, human. To be noted: 18 h, RT-qPCR normalized to 18S. As to the method: as §1

Bridge positions count the residues as written; N and C are the ends. Square brackets hold non-standard residues; d marks the D form. Peptide text beside a SMILES is read from it. N(1-adamantyl)Gly = O=C(O)CNC12CC3CC(CC(C3)C1)C2; Cha = N[C@@H](CC1CCCCC1)C(=O)O; S5 = C=CCCC[C@](C)(N)C(=O)O; PEG2 = NCCOCCOCCC(=O)O; PEG1 = NCCOCCC(=O)O; Ahx = NCCCCCC(=O)O; Ava = NCCCCC(=O)O; GABA = NCCCC(=O)O

A word on the Ki: it is the equilibrium dissociation constant of an inhibitor or competing ligand from its target. `CC(C)C[C@H](NC(=O)CCCNC(=O)CNC12CC3CC(CC(C3)C1)C2)C(=O)N[C@@H](CC(C)C)C(=O)N1CCC[C@H]1C(=O)N1CCC[C@H]1C(=O)N[C@H](C(=O)N[C@@H](CCC(=O)O)C(=O)N[C@@H](CCC(N)=O)C(=O)N[C@@H](CC(=O)O)C(=O)N[C@@H](CC(C)C)C(=O)N[C@@]1(C)CCC/C=C\CCC[C@@](C)(C(=O)N[C@@H](Cc2ccc(O)cc2)C(N)=O)NC(=O)[C@H](CC2CCCCC2)NC(=O)[C@H](CC(C)C)NC(=O)[C@H](CCCCN)NC1=O)[C@@H](C)O` [YL2-HyT1] (H-[N(1-adamantyl)Gly][GABA]LLPPTEQDL[S5]KL[Cha][S5]Y-NH2; staple (Z) 12-16; C-terminus assumed) came in with a Ki in data set [1] of 1080 ± 32 nM. In addition, in data set [2], the “Helicity (%)” value was 24.1%. Also, the “SRC-1 (%)” value is given as 98% in data set [3] (10 μM compound), 99% in data set [3] (20 μM compound) and 91% in data set [3] (50 μM compound).
In the same order, the values of `CC(C)C[C@H](NC(=O)CCCCNC(=O)CNC12CC3CC(CC(C3)C1)C2)C(=O)N[C@@H](CC(C)C)C(=O)N1CCC[C@H]1C(=O)N1CCC[C@H]1C(=O)N[C@H](C(=O)N[C@@H](CCC(=O)O)C(=O)N[C@@H](CCC(N)=O)C(=O)N[C@@H](CC(=O)O)C(=O)N[C@@H](CC(C)C)C(=O)N[C@@]1(C)CCC/C=C\CCC[C@@](C)(C(=O)N[C@@H](Cc2ccc(O)cc2)C(N)=O)NC(=O)[C@H](CC2CCCCC2)NC(=O)[C@H](CC(C)C)NC(=O)[C@H](CCCCN)NC1=O)[C@@H](C)O` [YL2-HyT2] (H-[N(1-adamantyl)Gly][Ava]LLPPTEQDL[S5]KL[Cha][S5]Y-NH2; staple (Z) 12-16; C-terminus assumed) are 1520 ± 87 nM, 18.7%, 92%, 85% and 66%.
Consider `CC(C)C[C@H](NC(=O)CCCCCNC(=O)CNC12CC3CC(CC(C3)C1)C2)C(=O)N[C@@H](CC(C)C)C(=O)N1CCC[C@H]1C(=O)N1CCC[C@H]1C(=O)N[C@H](C(=O)N[C@@H](CCC(=O)O)C(=O)N[C@@H](CCC(N)=O)C(=O)N[C@@H](CC(=O)O)C(=O)N[C@@H](CC(C)C)C(=O)N[C@@]1(C)CCC/C=C\CCC[C@@](C)(C(=O)N[C@@H](Cc2ccc(O)cc2)C(N)=O)NC(=O)[C@H](CC2CCCCC2)NC(=O)[C@H](CC(C)C)NC(=O)[C@H](CCCCN)NC1=O)[C@@H](C)O` [YL2-HyT3] (H-[N(1-adamantyl)Gly][Ahx]LLPPTEQDL[S5]KL[Cha][S5]Y-NH2; staple (Z) 12-16; C-terminus assumed), for which the inhibition constant (Ki) in data set [1] was 681 ± 54 nM. The “Helicity (%)” value in data set [2] is listed as 24.9%. Further, the “SRC-1 (%)” value in data set [3] (10 μM compound) came to 73%; in data set [3] (20 μM compound), 58%; in data set [3] (50 μM compound), 50%.
In the same order, the values of `CC(C)C[C@H](NC(=O)CCOCCNC(=O)CNC12CC3CC(CC(C3)C1)C2)C(=O)N[C@@H](CC(C)C)C(=O)N1CCC[C@H]1C(=O)N1CCC[C@H]1C(=O)N[C@H](C(=O)N[C@@H](CCC(=O)O)C(=O)N[C@@H](CCC(N)=O)C(=O)N[C@@H](CC(=O)O)C(=O)N[C@@H](CC(C)C)C(=O)N[C@@]1(C)CCC/C=C\CCC[C@@](C)(C(=O)N[C@@H](Cc2ccc(O)cc2)C(N)=O)NC(=O)[C@H](CC2CCCCC2)NC(=O)[C@H](CC(C)C)NC(=O)[C@H](CCCCN)NC1=O)[C@@H](C)O` [YL2-HyT4] (H-[N(1-adamantyl)Gly][PEG1]LLPPTEQDL[S5]KL[Cha][S5]Y-NH2; staple (Z) 12-16; C-terminus assumed) are 484 ± 52 nM, 29.9%, 83%, 53% and 70%.
`CC(C)C[C@H](NC(=O)CCOCCOCCNC(=O)CNC12CC3CC(CC(C3)C1)C2)C(=O)N[C@@H](CC(C)C)C(=O)N1CCC[C@H]1C(=O)N1CCC[C@H]1C(=O)N[C@H](C(=O)N[C@@H](CCC(=O)O)C(=O)N[C@@H](CCC(N)=O)C(=O)N[C@@H](CC(=O)O)C(=O)N[C@@H](CC(C)C)C(=O)N[C@@]1(C)CCC/C=C\CCC[C@@](C)(C(=O)N[C@@H](Cc2ccc(O)cc2)C(N)=O)NC(=O)[C@H](CC2CCCCC2)NC(=O)[C@H](CC(C)C)NC(=O)[C@H](CCCCN)NC1=O)[C@@H](C)O` [YL2-HyT5] (H-[N(1-adamantyl)Gly][PEG2]LLPPTEQDL[S5]KL[Cha][S5]Y-NH2; staple (Z) 12-16; C-terminus assumed) gave a Ki in data set [1] of 549 ± 17 nM. The “Helicity (%)” value in data set [2] is 27.2%. Moreover, the “SRC-1 (%)” value in data set [3] (10 μM compound) is listed as 78%; in data set [3] (20 μM compound), 95%; in data set [3] (50 μM compound) it was 57%.
For the compound `C1C2CC3CC1CC(C2)C3` [adamantane], in data set [4], the “E-cadherin mRNA expression level” value was “no effect”. In data set [3] (20 μM), the “SRC-1 degradation (immunoblot)” value is “no effect”. In addition, in data set [5], the “CSF-1 mRNA expression level” value was “no effect”.

Values taken from publication PMC8232704, “Hydrophobic Tagging-Mediated Degradation of Transcription Coactivator SRC-1” (International Journal of Molecular Sciences, 2021).
